Data reported in publication PMC3724473 (Biosensors & bioelectronics, 2012).

Experiments:
[1] = target: T1, CotA / bilirubin oxidase (BOD) from Bacillus pumilus (Bacillus pumilus, UniProt A8FAG9); assay: spectrophotometric oxidation at […] nm, Michaelis-Menten fit; format: biochemical; conditions: optimal pH (assay pH 6.8), 37 °C, McIlvaine citrate-phosphate buffer
[2] = target: T1, CotA / bilirubin oxidase (BOD) from Bacillus pumilus; assay: spectrophotometric at […] nm; format: biochemical; conditions: optimal pH (assay pH 7.2, 50 mM sodium phosphate), 37 °C

Km [1] [µM]	Km [2] [µM]	Compound
822		COc1cccc(OC)c1O [2,6-DMP, 2,6-dimethoxyphenol]
	22	C=CC1=C(C)/C(=C/c2[nH]c(Cc3[nH]c(/C=C4\NC(=O)C(C)=C4C=C)c(C)c3CCC(=O)O)c(CCC(=O)O)c2C)NC1=O [unconjugated bilirubin]
